Experimental data: patent US7070767B2, “Fossorial rodent control compositions and methods” (priority 1998, dated 2006)

System: rodents
Assay: effectiveness of respiratory irritants in the foam in hastening the death of rodents
Assay type: in vivo
Settings: rodents that inhaled the foam/irritant combination
Experimental: Furthermore, it is available in commercial quantities in a finely ground form which disperses quickly and evenly into the concentrated foaming agent and remains suspended as the foaming agent is diluted and aerated. Alternative respiratory irritants may share all of or many of these characteristics and include ground horseradish and powdered elemental sulphur.
In the preferred embodiment, a concentrated composition is made by mixing the foaming agent in liquid concentrate form with the mustard powder, preferably in an approximate 3:1 ratio by weight, with the goal of achieving a 1% (w:v) foaming agent concentration and approximately 0.3% to 0.5% (w:v) mustard concentration when the concentrate is diluted to a use level. The proprietary concentrated foaming agents have specific gravities of approximately 1.029 kg per liter and it is generally recommended by the respective manufacturers that it be used in 0.1% to 1% concentration.

## [S] [powdered elemental sulphur, elemental sulphur]
  effectiveness as respiratory irritant in the foam: effective but less so than the ground mustard
